Tests used:
PinPOR = target: T1, PinPOR (Pinus mugo, UniProt Q41202); assay: […] K Pchlide fluorescence in darkness, F648/F635 ratio vs NADPH, hyperbolic fit; type: binding; details: lipid-free; 5 μM Pchlide, 15 μM LPOR, pH 7.1, room-temperature dark incubation; apparent parameter, exact value in supplement; read-out: KM^D
T1 construct: transit peptide removed; pET15b
T1 sequence (Q41202 67-400): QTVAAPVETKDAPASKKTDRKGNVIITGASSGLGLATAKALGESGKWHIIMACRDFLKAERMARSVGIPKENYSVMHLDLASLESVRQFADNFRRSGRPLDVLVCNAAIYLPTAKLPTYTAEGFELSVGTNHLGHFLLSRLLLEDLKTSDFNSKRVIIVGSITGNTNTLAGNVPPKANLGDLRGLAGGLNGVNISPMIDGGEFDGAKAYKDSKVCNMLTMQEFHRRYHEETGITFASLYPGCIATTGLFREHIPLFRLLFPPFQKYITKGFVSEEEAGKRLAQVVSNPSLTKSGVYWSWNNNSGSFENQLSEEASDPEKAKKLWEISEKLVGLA

SlPOR2 = target: T2, SlPOR2 (Solanum lycopersicum, UniProt A0A3Q7IBI0); assay: as above; type: binding; details: lipid-free; 5 μM Pchlide, 15 μM LPOR, pH 7.1, room-temperature dark incubation; apparent parameter, exact value in supplement; read-out: KM^D
T2 construct: gene POR; transit peptide removed; pET15b
T2 sequence (A0A3Q7IBI0 62-395): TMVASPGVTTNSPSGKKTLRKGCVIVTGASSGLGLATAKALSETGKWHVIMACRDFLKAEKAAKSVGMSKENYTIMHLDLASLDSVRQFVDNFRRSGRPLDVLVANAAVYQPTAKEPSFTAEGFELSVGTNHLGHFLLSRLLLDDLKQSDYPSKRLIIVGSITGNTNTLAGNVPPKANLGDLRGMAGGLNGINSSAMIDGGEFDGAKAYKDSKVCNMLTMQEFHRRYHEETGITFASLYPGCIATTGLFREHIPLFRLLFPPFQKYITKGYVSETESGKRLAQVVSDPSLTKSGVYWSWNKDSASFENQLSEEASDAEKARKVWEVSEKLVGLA

TaPOR1 = target: T3, TaPOR1 (Triticum aestivum, UniProt Q41578); details: 400 uM OPT lipids; substrate; read-out: illuminated, 400 uM OPT, KM^L
T3 construct: gene PORA
T3 sequence (Q41578 75-388): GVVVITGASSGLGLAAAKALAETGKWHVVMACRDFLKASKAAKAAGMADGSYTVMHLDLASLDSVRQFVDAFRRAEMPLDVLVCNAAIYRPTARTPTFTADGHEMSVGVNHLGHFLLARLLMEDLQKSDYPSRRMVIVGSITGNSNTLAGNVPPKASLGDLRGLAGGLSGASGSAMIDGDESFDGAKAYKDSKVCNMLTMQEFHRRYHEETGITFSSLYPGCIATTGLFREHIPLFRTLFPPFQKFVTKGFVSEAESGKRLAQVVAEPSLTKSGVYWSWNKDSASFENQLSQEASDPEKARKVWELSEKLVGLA
Excerpt: (§1) All samples were thawed in darkness, illuminated for 20 s to initiate the reaction, and then frozen again and remeasured. […] These plots also resembled saturation curves, to which a hyperbolic function similar to the modified Michaelis–Menten equation could be fitted (Figs. 3C, S5, Materials and Methods).

AtPORA = target: T4, AtPORA (Arabidopsis thaliana, UniProt Q42536); details: 400 uM OPT lipids; substrate; read-out: illuminated, 400 uM OPT, KM^L
T4 construct: gene PORA
T4 sequence (Q42536 70-405): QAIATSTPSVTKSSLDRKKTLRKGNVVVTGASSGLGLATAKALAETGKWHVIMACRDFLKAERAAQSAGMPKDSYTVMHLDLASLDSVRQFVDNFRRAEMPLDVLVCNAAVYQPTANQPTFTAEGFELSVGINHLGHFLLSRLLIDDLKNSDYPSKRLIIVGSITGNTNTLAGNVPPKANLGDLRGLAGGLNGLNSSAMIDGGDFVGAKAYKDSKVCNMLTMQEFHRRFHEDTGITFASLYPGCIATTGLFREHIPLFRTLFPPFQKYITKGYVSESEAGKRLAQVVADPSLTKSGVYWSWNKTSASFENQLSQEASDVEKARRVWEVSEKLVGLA
Excerpt: as §1

AtPORC = target: T5, AtPORC (Arabidopsis thaliana, UniProt O48741); details: 400 uM OPT lipids; substrate; read-out: illuminated, 400 uM OPT, KM^L
T5 construct: gene PORC
T5 sequence (O48741 68-401): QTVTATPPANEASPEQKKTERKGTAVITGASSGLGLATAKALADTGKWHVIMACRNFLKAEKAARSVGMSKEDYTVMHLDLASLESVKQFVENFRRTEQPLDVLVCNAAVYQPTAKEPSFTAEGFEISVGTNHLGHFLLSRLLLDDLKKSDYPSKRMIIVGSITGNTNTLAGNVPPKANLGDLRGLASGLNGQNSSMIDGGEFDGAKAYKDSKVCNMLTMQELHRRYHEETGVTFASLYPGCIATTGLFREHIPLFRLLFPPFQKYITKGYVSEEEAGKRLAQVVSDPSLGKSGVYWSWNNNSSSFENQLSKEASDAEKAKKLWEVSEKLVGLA
Excerpt: as §1

AtPORB = target: T6, AtPORB (Arabidopsis thaliana, UniProt P21218); details: 400 uM OPT lipids; substrate; read-out: illuminated, 400 uM OPT, KM^L
T6 construct: gene PORB
T6 sequence (P21218 67-401): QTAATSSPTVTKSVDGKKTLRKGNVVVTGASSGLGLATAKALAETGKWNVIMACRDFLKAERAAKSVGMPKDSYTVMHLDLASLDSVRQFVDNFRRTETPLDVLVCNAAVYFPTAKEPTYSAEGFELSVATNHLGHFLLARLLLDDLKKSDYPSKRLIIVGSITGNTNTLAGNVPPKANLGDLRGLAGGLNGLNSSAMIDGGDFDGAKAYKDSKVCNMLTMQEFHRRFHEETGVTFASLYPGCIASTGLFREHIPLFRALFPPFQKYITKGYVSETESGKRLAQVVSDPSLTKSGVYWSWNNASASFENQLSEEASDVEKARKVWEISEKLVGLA
Excerpt: as §1

TaPOR2 = target: T7, TaPOR2 (Triticum aestivum, UniProt A0A3B5XZQ9); details: 400 uM OPT lipids; substrate; read-out: illuminated, 400 uM OPT, KM^L
T7 construct: gene LOC123047424
T7 sequence (A0A3B5XZQ9 60-395): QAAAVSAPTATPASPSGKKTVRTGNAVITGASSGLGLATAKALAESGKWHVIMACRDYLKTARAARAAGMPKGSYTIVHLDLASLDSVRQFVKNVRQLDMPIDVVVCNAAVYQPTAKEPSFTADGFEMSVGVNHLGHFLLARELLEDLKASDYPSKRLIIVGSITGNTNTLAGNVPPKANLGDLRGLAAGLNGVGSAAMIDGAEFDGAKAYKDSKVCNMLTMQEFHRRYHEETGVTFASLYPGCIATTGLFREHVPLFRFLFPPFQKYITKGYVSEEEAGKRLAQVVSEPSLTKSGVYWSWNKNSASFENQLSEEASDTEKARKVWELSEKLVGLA
Excerpt: as §1

Kd (PinPOR): < 10 µM | Kd (SlPOR2): < 10 µM | Km (TaPOR1): 39.7 µM | Km (AtPORA): 2.5 µM | Km (AtPORC): 0.7 µM | Km (AtPORB): 1.3 µM | Km (TaPOR2): 6.1 µM
SMILES: NC(=O)C1=CN([C@@H]2O[C@H](COP(=O)(O)OP(=O)(O)OC[C@H]3O[C@@H](n4cnc5c(N)ncnc54)[C@H](OP(=O)(O)O)[C@@H]3O)[C@@H](O)[C@H]2O)C=CC1 [NADPH]

Source: PMC11930087, “Mobility of four structural regions drives isoform-specific properties of photoenzyme LPOR in plants” (The Journal of Biological Chemistry, 2025)
